Experimental data taken from paper PMC6154534, “New Benzimidazole-1,2,4-Triazole Hybrid Compounds: Synthesis, Anticandidal Activity and Cytotoxicity Evaluation” (Molecules : A Journal of Synthetic Chemistry and Natural …, 2017).
Converted amounts (≈) assume the structure as drawn.

Assays:
C. albicans (ATCC 24433) = assay: Anticandidal broth microdilution (EUCAST EDef 7.1), resazurin fluorometric readout; format: cell-based; conditions: Candida albicans, ATCC24433; ATCC 24433, RPMI pH 7, 24 h incubation
Method: (§1) Synthesized compounds (5a-5ad) were evaluated for anticandidal activity against C. albicans (ATCC 24433), C. krusei (ATCC 6258), C. parapsilosis (ATCC 22019) and C. [NT] 90030). MIC50 values were evaluated via fluorometric measurements, using resazurin solution [56, 57]. […] [NT] 90030). MIC readings were carried out twice for each chemical agent. The yeasts were maintained in RPMI after overnight incubation at 37 °C. The inocula of test microorganisms adjusted to match the turbidity of a MacFarland 0.5 standard tube as determined with a spectrophotometer and the final inoculum size was 0.5-2.5 × 10^5 cfu/mL for antifungal assay. Testing was carried out in RPMI at pH = 7 and the two-fold serial dilutions technique was applied. The last well on the microplates containing only inoculated broth was kept as controls and the last well with no growth of microorganism was recorded to represent the MIC50 expressed in μg/mL. For the antifungal assays, the compounds were dissolved in DMSO. […] The completed plates were incubated for 24 h. At the end of the incubation, resazurin (20 μg/mL) was added into each well to control whether the growth in wells. Then, plates were allowed to incubate for 2 h. MIC50 values were determined using a microplate reader at […].

C. glabrata (ATCC 90030) = assay: as above; format: cell-based; conditions: Nakaseomyces glabratus, ATCC90030; ATCC 90030, RPMI pH 7, 24 h incubation
Method: as §1

C. krusei (ATCC 6258) = assay: as above; format: cell-based; conditions: Pichia kudriavzevii, ATCC6258; ATCC 6258, RPMI pH 7, 24 h incubation
Method: as §1

[1] = system: C. parapsilosis (ATCC 22019); assay: as above; format: cell-based; conditions: Lodderomyces parapsilosis, ATCC22019; ATCC 22019, RPMI pH 7, 24 h incubation; read-out: MIC50 C. parapsilopsis
Method: as §1

Candida species = assay: Anticandidal broth microdilution, results summarised over all strains; format: cell-based; conditions: summary over all four Candida strains; for MIC50: Candida, read-out: MIC50 against Candida species
Method: as §1

[2] = system: NIH/3T3 mouse embryonic fibroblast cell line (ATCC CRL1658); assay: MTT cytotoxicity assay; format: cell-based; conditions: NIH3T3, tested 800 to 0.78 µg/mL, read-out: IC50 on NIH/3T3 mouse embryonic fibroblast cell lines
Description: Toxicity is a key cause of failure at all steps of the new drug development process. The most part of safety-related problems occur at preclinical phases to predict preclinical safety liabilities earlier in the new drug development process. This approach allows to design and/or selection of better drug candidates that have more potentials to be marketed drugs. […] Cytotoxicities of selected compounds (5m, 5o, 5r, 5w, 5y, 5ab, and 5ad), displaying strong anticandidal activity and good predicted pharmacokinetics, were determined against NIH/3T3 mouse embryonic fibroblast cell lines (ATCC CRL1658).
Cytotoxicity was tested using the NIH/3T3 mouse embryonic fibroblast cell line (ATCC® CRL-1658™, London, UK). NIH/3T3 cells were incubated according to the supplier’s recommendations and they were seeded at 1 × 10^4 cells into each well of 96-well plates. MTT assay was performed as previously described. The compounds were tested in a concentration range of 800 µg/mL and 0.78 µg/mL concentrations. Percent inhibition was calculated for each concentration according to the formula below, and IC50 values were determined by plotting a concentration–response curve of inhibition percent versus compound concentrations tested.

| Structure (SMILES) | MIC50 (C. albicans (ATCC 24433)) | MIC50 (C. glabrata (ATCC 90030)) | MIC50 (C. krusei (ATCC 6258)) | MIC50 [1] | MIC50 (Candida species) | IC50 [2] | melting point | anticandidal activity against Candida strains (in words) (Candida species) |
| --- | --- | --- | --- | --- | --- | --- | --- | --- |
| Cn1c(SCC(=O)c2ccc(F)cc2F)nnc1-c1ccc(-c2nc3ccc(F)cc3[nH]2)cc1 [Compound 5y, 1-(2,4-Difluorophenyl)-2-((5-(4-(6-fluoro-1H-benzimidazol-2-yl)phenyl)-4-methyl-4H-1,2,4-triazol-3-yl)thio)ethan-1-one] | 0.78 µg/mL (≈ 1.63 µM) | 1.56 µg/mL (≈ 3.25 µM) | 0.78 µg/mL (≈ 1.63 µM) | 1.56 µg/mL (≈ 3.25 µM) | 0.78 to 1.56 µg/mL (≈ 1.63 to 3.25 µM) | 11.1 ± 0.57 µg/mL (≈ 23.2 µM) | 263.2 °C |  |
| CCn1c(SCC(=O)c2ccc(F)cc2)nnc1-c1ccc(-c2nc3ccc(Cl)cc3[nH]2)cc1 [Compound 5r, 2-((5-(4-(6-Chloro-1H-benzimidazol-2-yl)phenyl)-4-ethyl-4H-1,2,4-triazol-3-yl)thio)-1-(4-fluorophenyl)ethan-1-one] | 0.78 µg/mL (≈ 1.59 µM) | 0.78 µg/mL (≈ 1.59 µM) | 1.56 µg/mL (≈ 3.17 µM) | 1.56 µg/mL (≈ 3.17 µM) | 0.78 to 1.56 µg/mL (≈ 1.59 to 3.17 µM) | 13.9 ± 0.69 µg/mL (≈ 28.3 µM) | 265.5 °C |  |
| Cn1c(SCC(=O)c2ccc(F)cc2)nnc1-c1ccc(-c2nc3ccc(Cl)cc3[nH]2)cc1 [Compound 5m, 2-((5-(4-(6-Chloro-1H-benzimidazol-2-yl)phenyl)-4-methyl-4H-1,2,4-triazol-3-yl)thio)-1-(4-fluorophenyl)ethan-1-one] | 0.78 µg/mL (≈ 1.63 µM) | 1.56 µg/mL (≈ 3.26 µM) | 0.78 µg/mL (≈ 1.63 µM) | 0.78 µg/mL (≈ 1.63 µM) | 0.78 to 1.56 µg/mL (≈ 1.63 to 3.26 µM) | 17.4 ± 0.89 µg/mL (≈ 36.4 µM) | 274.5 °C |  |
| CCn1c(SCC(=O)c2ccc(Cl)cc2)nnc1-c1ccc(-c2nc3ccc(F)cc3[nH]2)cc1 [Compound 5aa, 1-(4-Chlorophenyl)-2-((4-ethyl-5-(4-(6-fluoro-1H-benzimidazol-2-yl)phenyl)-4H-1,2,4-triazol-3-yl)thio)ethan-1-one] | 6.25 µg/mL (≈ 12.7 µM) | 12.5 µg/mL (≈ 25.4 µM) | 6.25 µg/mL (≈ 12.7 µM) | 12.5 µg/mL (≈ 25.4 µM) |  |  | 241.4 °C | did not show strong activity |
| CCn1c(SCC(=O)c2ccc(F)cc2)nnc1-c1ccc(-c2nc3ccc(F)cc3[nH]2)cc1 [Compound 5ab, 2-((4-Ethyl-5-(4-(6-fluoro-1H-benzimidazol-2-yl)phenyl)-4H-1,2,4-triazol-3-yl)thio)-1-(4-fluorophenyl)ethan-1-one] | 0.78 µg/mL (≈ 1.64 µM) | 1.56 µg/mL (≈ 3.28 µM) | 1.56 µg/mL (≈ 3.28 µM) | 0.78 µg/mL (≈ 1.64 µM) | 0.78 to 1.56 µg/mL (≈ 1.64 to 3.28 µM) | 43.1 ± 2.88 µg/mL (≈ 90.7 µM) | 251 °C |  |
| CCn1c(SCC(=O)c2ccc(Cl)cc2Cl)nnc1-c1ccc(-c2nc3ccc(F)cc3[nH]2)cc1 [Compound 5ac, 1-(2,4-Dichlorophenyl)-2-((4-ethyl-5-(4-(6-fluoro-1H-benzimidazol-2-yl)phenyl)-4H-1,2,4-triazol-3-yl)thio)ethan-1-one] | 1.56 µg/mL (≈ 2.96 µM) | 1.56 µg/mL (≈ 2.96 µM) | 1.56 µg/mL (≈ 2.96 µM) | 1.56 µg/mL (≈ 2.96 µM) | 1.56 to 3.12 µg/mL (≈ 2.96 to 5.93 µM) |  | 223.3 °C |  |
| Cn1c(SCC(=O)c2ccc(F)cc2F)nnc1-c1ccc(-c2nc3ccc(Cl)cc3[nH]2)cc1 [Compound 5o, 2-((5-(4-(6-Chloro-1H-benzimidazol-2-yl)phenyl)-4-methyl-4H-1,2,4-triazol-3-yl)thio)-1-(2,4-difluorophenyl)ethan-1-one] | 0.78 µg/mL (≈ 1.57 µM) | 1.56 µg/mL (≈ 3.15 µM) | 1.56 µg/mL (≈ 3.15 µM) | 0.78 µg/mL (≈ 1.57 µM) | 0.78 to 1.56 µg/mL (≈ 1.57 to 3.15 µM) | 1.63 ± 0.02 µg/mL (≈ 3.29 µM) | 264.9 °C |  |
| CCn1c(SCC(=O)c2ccc(F)cc2F)nnc1-c1ccc(-c2nc3ccc(Cl)cc3[nH]2)cc1 [Compound 5t, 2-((5-(4-(6-Chloro-1H-benzimidazol-2-yl)phenyl)-4-ethyl-4H-1,2,4-triazol-3-yl)thio)-1-(2,4-difluorophenyl)ethan-1-one] | 0.78 µg/mL (≈ 1.53 µM) | 1.56 µg/mL (≈ 3.06 µM) | 0.78 µg/mL (≈ 1.53 µM) | 0.78 µg/mL (≈ 1.53 µM) | 0.78 to 1.56 µg/mL (≈ 1.53 to 3.06 µM) |  | 250.6 °C |  |
| Cn1c(SCC(=O)c2ccccc2)nnc1-c1ccc(-c2nc3ccc(F)cc3[nH]2)cc1 [Compound 5u, 2-((5-(4-(6-Fluoro-1H-benzimidazol-2-yl)phenyl)-4-methyl-4H-1,2,4-triazol-3-yl)thio)-1-phenylethan-1-one] | 12.5 µg/mL (≈ 28.2 µM) | 25 µg/mL (≈ 56.4 µM) | 50 µg/mL (≈ 113 µM) | 50 µg/mL (≈ 113 µM) |  |  | 277.1 °C | did not show strong activity |
| Cn1c(SCC(=O)c2ccc(Cl)cc2)nnc1-c1ccc(-c2nc3ccc(F)cc3[nH]2)cc1 [Compound 5v, 1-(4-Chlorophenyl)-2-((5-(4-(6-fluoro-1H-benzimidazol-2-yl)phenyl)-4-methyl-4H-1,2,4-triazol-3-yl)thio)ethan-1-one] | 12.5 µg/mL (≈ 26.2 µM) | 6.25 µg/mL (≈ 13.1 µM) | 12.5 µg/mL (≈ 26.2 µM) | 12.5 µg/mL (≈ 26.2 µM) | 1.56 to 3.12 µg/mL (≈ 3.26 to 6.53 µM) |  | 252.9 °C | did not show strong activity |
| CCn1c(SCC(=O)c2ccc(Cl)cc2)nnc1-c1ccc(-c2nc3ccc(Cl)cc3[nH]2)cc1 [Compound 5q, 2-((5-(4-(6-Chloro-1H-benzimidazol-2-yl)phenyl)-4-ethyl-4H-1,2,4-triazol-3-yl)thio)-1-(4-chlorophenyl)ethan-1-one] | 6.25 µg/mL (≈ 12.3 µM) | 12.5 µg/mL (≈ 24.6 µM) | 12.5 µg/mL (≈ 24.6 µM) | 12.5 µg/mL (≈ 24.6 µM) |  |  | 252.2 °C | did not show strong activity |
